Measurements: patent US11447466B2, “Substituted indole compounds useful as inhibitors of TLR7/8/9” (BRISTOL-MYERS SQUIBB COMPANY, priority 2017, dated 2022)

Key:
Format in all cases: cell-based
human TLR7 = molecular target: T1, human TLR7 (Homo sapiens, UniProt Q9NYK1); assay: TLR7 inhibition reporter assay (HEK-Blue SEAP reporter, gardiquimod stimulation); settings: HEK-Blue cells overexpressing human TLR7, SEAP reporter, gardiquimod 7.5 μM, 22 hour incubation
T1 construct: host or cells: HEK-Blue cells
T1 sequence (Q9NYK1 27-1049): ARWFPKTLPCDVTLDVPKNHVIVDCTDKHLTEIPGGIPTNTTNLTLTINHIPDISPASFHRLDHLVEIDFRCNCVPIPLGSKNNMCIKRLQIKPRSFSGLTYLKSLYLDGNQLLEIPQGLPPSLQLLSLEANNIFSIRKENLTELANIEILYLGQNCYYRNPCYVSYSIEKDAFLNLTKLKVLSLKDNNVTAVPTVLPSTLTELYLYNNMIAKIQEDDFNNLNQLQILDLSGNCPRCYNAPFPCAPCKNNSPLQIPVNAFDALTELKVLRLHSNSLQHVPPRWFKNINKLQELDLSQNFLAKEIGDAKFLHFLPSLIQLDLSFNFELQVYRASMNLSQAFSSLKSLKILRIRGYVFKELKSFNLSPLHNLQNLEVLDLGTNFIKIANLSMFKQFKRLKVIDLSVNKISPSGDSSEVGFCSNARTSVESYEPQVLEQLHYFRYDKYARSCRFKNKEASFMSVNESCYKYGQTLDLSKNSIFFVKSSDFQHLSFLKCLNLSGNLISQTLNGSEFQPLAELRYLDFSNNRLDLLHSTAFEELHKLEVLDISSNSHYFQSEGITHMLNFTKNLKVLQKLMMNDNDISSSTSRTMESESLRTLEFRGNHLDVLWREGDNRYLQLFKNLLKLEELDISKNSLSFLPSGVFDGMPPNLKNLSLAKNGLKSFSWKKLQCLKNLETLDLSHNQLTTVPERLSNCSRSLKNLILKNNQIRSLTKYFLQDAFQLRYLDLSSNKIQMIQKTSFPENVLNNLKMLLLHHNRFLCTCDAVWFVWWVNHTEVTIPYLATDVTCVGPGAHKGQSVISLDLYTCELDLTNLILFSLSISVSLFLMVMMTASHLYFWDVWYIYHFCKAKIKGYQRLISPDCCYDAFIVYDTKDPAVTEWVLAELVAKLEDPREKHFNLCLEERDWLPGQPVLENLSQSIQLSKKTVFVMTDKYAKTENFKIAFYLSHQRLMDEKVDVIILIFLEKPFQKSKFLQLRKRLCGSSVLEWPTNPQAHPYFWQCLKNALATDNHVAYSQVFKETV
Summary of the method: (§1)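 HEK-Blue cells overexpressing human TLR7, TLR8 or TLR9 carry a SEAP reporter driven by NF-κB/AP-1 sites. Compounds (0.05 nM–50 μM) were preincubated 30 min at room temperature, then cells were stimulated with gardiquimod 7.5 μM (TLR7), R848 15.9 μM (TLR8) or ODN2006 5 nM (TLR9) for 22 h at 37 °C.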

human TLR8 = molecular target: T2, human TLR8 (Homo sapiens, UniProt Q9NR97); assay: TLR8 inhibition reporter assay (HEK-Blue SEAP reporter, R848 stimulation); settings: HEK-Blue cells overexpressing human TLR8, SEAP reporter, R848 15.9 μM, 22 hour incubation
T2 construct: host or cells: HEK-Blue cells
T2 sequence (Q9NR97 27-1041): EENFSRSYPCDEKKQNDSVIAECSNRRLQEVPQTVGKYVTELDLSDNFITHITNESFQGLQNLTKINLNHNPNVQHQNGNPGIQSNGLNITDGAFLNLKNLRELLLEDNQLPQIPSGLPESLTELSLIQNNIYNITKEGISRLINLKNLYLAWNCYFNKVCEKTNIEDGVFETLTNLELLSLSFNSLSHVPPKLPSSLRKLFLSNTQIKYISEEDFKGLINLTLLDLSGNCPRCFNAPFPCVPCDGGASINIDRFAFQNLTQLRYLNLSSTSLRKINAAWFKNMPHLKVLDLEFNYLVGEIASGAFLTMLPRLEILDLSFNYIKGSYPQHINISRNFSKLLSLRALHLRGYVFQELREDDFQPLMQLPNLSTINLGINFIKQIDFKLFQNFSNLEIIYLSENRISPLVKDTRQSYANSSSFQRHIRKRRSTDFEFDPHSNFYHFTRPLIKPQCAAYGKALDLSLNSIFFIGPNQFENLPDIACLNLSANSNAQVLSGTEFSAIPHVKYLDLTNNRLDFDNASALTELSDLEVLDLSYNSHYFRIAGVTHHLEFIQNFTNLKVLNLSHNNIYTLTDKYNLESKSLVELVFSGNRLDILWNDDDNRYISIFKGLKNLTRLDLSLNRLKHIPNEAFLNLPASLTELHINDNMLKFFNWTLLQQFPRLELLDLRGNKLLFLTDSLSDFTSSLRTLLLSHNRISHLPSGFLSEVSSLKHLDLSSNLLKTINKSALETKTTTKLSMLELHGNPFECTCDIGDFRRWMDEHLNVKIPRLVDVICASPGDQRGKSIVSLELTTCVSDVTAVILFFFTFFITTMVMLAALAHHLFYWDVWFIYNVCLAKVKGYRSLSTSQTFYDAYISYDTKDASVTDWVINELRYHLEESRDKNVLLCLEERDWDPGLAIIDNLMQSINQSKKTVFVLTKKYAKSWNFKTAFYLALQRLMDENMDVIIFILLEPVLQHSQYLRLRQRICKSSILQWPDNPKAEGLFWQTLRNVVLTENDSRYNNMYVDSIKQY
Summary of the method: as §1

human TLR9 = molecular target: T3, human TLR9 (Homo sapiens, UniProt Q9NR96); assay: TLR9 inhibition reporter assay (HEK-Blue SEAP reporter, ODN2006 stimulation); settings: HEK-Blue cells overexpressing human TLR9, SEAP reporter, ODN2006 5 nM, 22 hour incubation
T3 construct: host or cells: HEK-Blue cells
T3 sequence (Q9NR96 26-1032): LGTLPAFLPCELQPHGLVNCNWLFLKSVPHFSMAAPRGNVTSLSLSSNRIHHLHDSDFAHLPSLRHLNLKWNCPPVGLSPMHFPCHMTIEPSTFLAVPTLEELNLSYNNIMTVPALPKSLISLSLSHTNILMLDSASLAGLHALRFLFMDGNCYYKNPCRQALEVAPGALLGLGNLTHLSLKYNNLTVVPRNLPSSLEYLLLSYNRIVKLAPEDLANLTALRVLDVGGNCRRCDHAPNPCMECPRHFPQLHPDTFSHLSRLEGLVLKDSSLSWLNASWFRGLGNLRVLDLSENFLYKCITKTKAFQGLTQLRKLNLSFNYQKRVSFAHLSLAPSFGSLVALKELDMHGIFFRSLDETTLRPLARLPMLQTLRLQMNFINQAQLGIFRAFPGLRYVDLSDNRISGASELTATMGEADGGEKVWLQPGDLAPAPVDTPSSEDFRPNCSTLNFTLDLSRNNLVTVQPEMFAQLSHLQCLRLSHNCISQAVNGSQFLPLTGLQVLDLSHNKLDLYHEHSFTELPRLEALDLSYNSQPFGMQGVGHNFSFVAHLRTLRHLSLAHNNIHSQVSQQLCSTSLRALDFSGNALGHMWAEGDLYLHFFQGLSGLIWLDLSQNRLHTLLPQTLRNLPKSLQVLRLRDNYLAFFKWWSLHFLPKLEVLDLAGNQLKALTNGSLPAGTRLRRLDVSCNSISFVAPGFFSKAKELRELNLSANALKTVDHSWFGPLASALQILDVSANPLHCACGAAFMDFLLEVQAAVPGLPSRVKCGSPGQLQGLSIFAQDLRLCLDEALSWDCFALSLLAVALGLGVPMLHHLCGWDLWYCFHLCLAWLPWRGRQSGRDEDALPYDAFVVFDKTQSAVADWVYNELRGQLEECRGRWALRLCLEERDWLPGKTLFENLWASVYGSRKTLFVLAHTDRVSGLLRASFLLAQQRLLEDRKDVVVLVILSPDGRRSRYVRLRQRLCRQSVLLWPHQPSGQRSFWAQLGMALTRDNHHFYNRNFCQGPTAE
Summary of the method: as §1

| IC50 (human TLR7) [µM] | IC50 (human TLR8) [µM] | IC50 (human TLR9) [µM] | Compound |
| --- | --- | --- | --- |
| 0.0232 | 0.0031 | 2.24 | CCCN1CCC(c2ccc3[nH]c(-c4cc(-c5cncnc5)c(=O)n(CC)c4)c(C(C)C)c3c2)CC1 [Example 260, 1-ethyl-5-(3-isopropyl-5-(1-propylpiperidin-4-yl)-1H-indol-2-yl)-3-(pyrimidin-5-yl)pyridin-2(1H)-one] |
| 0.0088 | 0.0071 | 3.36 | COCCn1cc(-c2[nH]c3ccc(C4CCN(C5CCOCC5)CC4)cc3c2C(C)C)cc(C)c1=O [Example 261, 5-(3-isopropyl-5-(1-(tetrahydro-2H-pyran-4-yl)piperidin-4-yl)-1H-indol-2-yl)-1-(2-methoxyethyl)-3-methylpyridin-2(1H)-one] |
| 0.0477 | 0.0523 | 2.12 | Cc1cc(-c2[nH]c3ccc(C4CCN(C5CCOCC5)CC4)cc3c2C(C)C)cn(CC(C)C)c1=O [Example 262, 1-isobutyl-5-(3-isopropyl-5-(1-(tetrahydro-2H-pyran-4-yl)piperidin-4-yl)-1H-indol-2-yl)-3-methylpyridin-2(1H)-one] |
| 0.0108 | 0.0241 | 1.56 | Cc1cc(-c2[nH]c3ccc(C4CCN(C5CCOCC5)CC4)cc3c2C(C)C)cn(Cc2ccccc2)c1=O [Example 263, 1-benzyl-5-(3-isopropyl-5-(1-(tetrahydro-2H-pyran-4-yl)piperidin-4-yl)-1H-indol-2-yl)-3-methylpyridin-2(1H)-one] |
| 0.0135 | 0.927 | 6.09 | Cc1cc(-c2[nH]c3ccc(C4CCN(C)CC4)cc3c2C(C)C)cn(CCO)c1=O [Example 264, 1-(2-hydroxyethyl)-5-(3-isopropyl-5-(1-methylpiperidin-4-yl)-1H-indol-2-yl)-3-methylpyridin-2(1H)-one] |
| 0.0201 | 0.0426 | 5.03 | Cc1cc(-c2[nH]c3ccc(C4CCN(C)CC4)cc3c2C(C)C)cn(CC(F)(F)F)c1=O [Example 265, 5-(3-isopropyl-5-(1-methylpiperidin-4-yl)-1H-indol-2-yl)-3-methyl-1-(2,2,2-trifluoroethyl)pyridin-2(1H)-one] |
| 0.0116 | 0.0158 | 4.48 | Cc1cc(-c2[nH]c3ccc(C4CCN(C)CC4)cc3c2C(C)C)cn(CC(F)F)c1=O [Example 266, 1-(2,2-difluoroethyl)-5-(3-isopropyl-5-(1-methylpiperidin-4-yl)-1H-indol-2-yl)-3-methylpyridin-2(1H)-one] |
| 0.0022 | 0.0066 | 3.54 | Cc1cc(-c2[nH]c3ccc(C4CCN(C5CCC(C(C)(C)O)CC5)CC4)cc3c2C(C)C)cn(C)c1=O (stereo not drawn) [Example 267, 5-(5-(1-(4-(2-hydroxypropan-2-yl)cyclohexyl)piperidin-4-yl)-3-isopropyl-1H-indol-2-yl)-1,3-dimethylpyridin-2(1H)-one] |
| 0.0024 | 0.0066 | 2.63 | Cc1cc(-c2[nH]c3ccc(C4CCN(C5CCC(C(C)(C)O)CC5)CC4)cc3c2C(C)C)cn(C)c1=O (stereo not drawn) [Example 268, 5-(5-(1-(4-(2-hydroxypropan-2-yl)cyclohexyl)piperidin-4-yl)-3-isopropyl-1H-indol-2-yl)-1,3-dimethylpyridin-2(1H)-one] |
| 0.0355 | 0.0046 | 5.9 | Cc1cc(-c2[nH]c3ccc(C4CCN(C(C)c5cnn(C)c5)CC4)cc3c2C(C)C)cn(C)c1=O (stereo not drawn) [Example 269, 5-(3-isopropyl-5-(1-(1-(1-methyl-1H-pyrazol-4-yl)ethyl)piperidin-4-yl)-1H-indol-2-yl)-1,3-dimethylpyridin-2(1H)-one] |
| 0.0021 | 0.0047 | 4.16 | Cc1cc(-c2[nH]c3ccc(C4CCN(C5CCC(C(C)(C)O)CC5)CC4)cc3c2C(C)C)cn(C)c1=O (stereo not drawn) [Example 270, 5-(5-(1-(4-(2-hydroxypropan-2-yl)cyclohexyl)piperidin-4-yl)-3-isopropyl-1H-indol-2-yl)-1,3-dimethylpyridin-2(1H)-one] |
| 0.0053 | 0.0083 | 13.5 | Cc1cc(-c2[nH]c3ccc(C4CCN(C(=O)CN(C)C)CC4)cc3c2C(C)C)cn(C)c1=O [Example 271, 5-(5-(1-(2-(dimethylamino)acetyl)piperidin-4-yl)-3-isopropyl-1H-indol-2-yl)-1,3-dimethylpyridin-2(1H)-one] |
| 0.0902 | 0.016 | 2.08 | Cc1c(-c2[nH]c3ccc(C4CCN(C(=O)CN(C)C)CC4)cc3c2C(C)C)cc(C#N)c(=O)n1C [Example 273, 5-(5-(1-(dimethylglycyl)piperidin-4-yl)-3-isopropyl-1H-indol-2-yl)-1,6-dimethyl-2-oxo-1,2-dihydropyridine-3-carbonitrile] |
| 0.183 | 0.0153 | 1.59 | Cc1c(-c2[nH]c3ccc(C4CCN(C(=O)CN(C)C)CC4)cc3c2C(C)C)cn(C)c(=O)c1C#N [Example 274, 5-(5-(1-(dimethylglycyl)piperidin-4-yl)-3-isopropyl-1H-indol-2-yl)-1,4-dimethyl-2-oxo-1,2-dihydropyridine-3-carbonitrile] |
